# Experimental data reported in US4908365A, “Benzhydryloxyethylpiperazine derivatives, processes for their preparation and pharmaceutical compositions in which they are present” (priority 1986, dated 1990).
# Where two headings read alike, the source gives them in different places.
# Columns and labels:
# in vivo = conditions: mouse, ip
# [1] = system: peritoneal pain caused by phenylbenzoquinone (PBQ); experiment: Peripheral analgesic activity (phenylbenzoquinone peritoneal pain); format: in vivo, mice; conditions: Mus musculus, 0.5 h, read-out: Peripheral analgesic activity ED50
# Description: E-Peripheral analgesic activity
# A peritoneal pain is caused in mice by the intraperitoneal injection of phenylbenzoquinone (PBQ). The test tries to measure the decrease in the pain syndrome, characterized by an abdominal twisting movement, which is caused by injecting the test product thirty minutes before the administration of PBQ.
# histamine [2] = experiment: Bronchospasm by inhalation of a histamine solution; format: in vivo, guinea-pigs; conditions: for ED50: Cavia porcellus, 0.5 h, read-out: Bronchospasm ED50
# Description: F-Bronchospasm by inhalation of a histamine solution
# Guinea-pigs are placed in a closed chamber into which histamine is introduced as an aerosol, and only those which show very distinct signs of asphyxia within four minutes are selected.
# The substance to be studied is administered to groups of guinea-pigs thirty minutes before a further period in the chamber in order to check the resistance to histamine. A guinea-pig is considered to be protected if it resists the histamine aerosol for ten minutes without showing signs of asphyxia.
# A 50% effective dose is calculated from the results obtained.
# histamine [3] = experiment: animal or person; format: in vivo, guinea-pigs; conditions: Cavia porcellus, 0.5 h, read-out: Histaminic shock ED50
# [4] = system: sleep induced by pentobarbital; experiment: animal or person; format: in vivo, mice; conditions: ip
# mice [5] = experiment: Muscle-relaxing action (traction test); format: in vivo; conditions: Mus musculus, ip, read-out: Muscle-relaxing action - Traction test ED50
# Description: C-Muscle-relaxing action (traction test)
# This test assesses the presence or absence of redressments in a mouse brought up to a horizontal wire with its front paws.
# The number of mice which are unable to grip the wire with one of their back paws within five seconds are noted.
# (§1) A 50% effective dose can be calculated from the results obtained.
# mice [6] = experiment: Exploration behavior (hole-board); format: in vivo; conditions: Mus musculus, ip, 0.5 h, read-out: Exploration behavior ED50
# Description: Thirty minutes after the intraperitoneal administration of the derivatives according to the invention, each mouse is placed on an automated hole-board for five minutes and the number of holes explored is noted every minute.
# as §1
# mice [7] = experiment: Study of the spontaneous motility (motor activity), photoelectric actimeter; format: in vivo; conditions: mouse, at 25 mg.kg^-1 i.p.
Compound,LD50 (in vivo) [mg/kg],ED50 ([1]; ip) [mg/kg],ED50 (histamine [2]; ip) [mg/kg],ED50 (histamine [3]; ip) [mg/kg],ED50 (histamine [2]; po) [mg/kg],ED50 (histamine [3]; po) [mg/kg],other results
"CS(=O)(=O)O.CS(=O)(=O)O.O=C1c2ccccc2C(=O)N1CCN1CCN(CCOC(c2ccccc2)c2ccccc2)CC1 [Derivative 2, 1-[2-(Benzhydryloxy)ethyl]-4-[2-(phthalimido)-ethyl]piperazine dimethanesulfonate]",211,3.12,3.67,2.03,–,–,–
O=C1c2ccccc2C(=O)N1CCCCN1CCN(CCOC(c2ccccc2)c2ccccc2)CC1 [Derivative 19],133,1.56,–,–,5.34,2.2,–
O=C1CCC(=O)N1CCN1CCN(CCOC(c2ccccc2)c2ccccc2)CC1 [Derivative 22],146,–,3.96,3.25,–,–,ED50 ([1]; po): 35 mg/kg
O=c1n(CCN2CCN(CCOC(c3ccccc3)c3ccccc3)CC2)c2ccccc2n1Cc1ccccc1 [Derivative 32],400,–,–,–,–,2.3,"Bronchospasm (histamine [2]; guinea pig, in vivo, po): 33%"
O=C(NCCN1CCN(CCOC(c2ccccc2)c2ccccc2)CC1)c1ccccc1[N+](=O)[O-] [Derivative 49],131,–,–,–,3.12,–,"Interaction with pentobarbital ([4]; mouse, in vivo): no interaction; ED50 ([1]; sc): 2.6 mg/kg"
"CC(C)(C)c1ccc(C(O)CCCN2CCC(C(O)(c3ccccc3)c3ccccc3)CC2)cc1 (stereo not shown) [Terfenadine, reference compound]",100,3.1,–,–,–,–,"ED50 ([4]; Mus musculus, read-out: Interaction with pentobarbital ED50): 25 mg/kg; ED50 (mice [5]): 31 mg/kg; ED50 (mice [6]): 37 mg/kg; Motor activity (mice [7]): Significant decrease"
